Source: ChEMBL document CHEMBL1135722, “Cysteine derivatives as inhibitors for carboxypeptidase A: synthesis and structure-activity relationships” (J Med Chem, 2002)

molecular target: T1, Carboxypeptidase A1 (Bos taurus, UniProt P00730); experiment: Inhibition of bovine carboxypeptidase A (CPA) using hippuryl-L-phenylalanine (Hipp-L-Phe) as a substrate.
T1 sequence (P00730 whole entry): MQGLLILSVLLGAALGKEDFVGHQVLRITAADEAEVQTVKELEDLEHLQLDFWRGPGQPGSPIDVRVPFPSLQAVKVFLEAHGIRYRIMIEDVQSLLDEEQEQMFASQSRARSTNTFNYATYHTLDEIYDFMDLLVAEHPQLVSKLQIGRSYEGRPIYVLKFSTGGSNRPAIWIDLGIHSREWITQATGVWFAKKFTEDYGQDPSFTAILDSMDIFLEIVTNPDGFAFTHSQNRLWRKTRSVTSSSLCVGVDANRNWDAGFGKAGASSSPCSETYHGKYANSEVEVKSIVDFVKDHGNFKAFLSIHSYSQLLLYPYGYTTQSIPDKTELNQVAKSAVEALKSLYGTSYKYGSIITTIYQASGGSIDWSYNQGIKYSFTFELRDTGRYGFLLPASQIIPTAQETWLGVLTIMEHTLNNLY

Ki [µM]	SMILES
0.27	O=C(O)C(CS)NCc1ccccc1 (stereo not given)
33	O=C(O)[C@H](CS)NCc1ccccc1
0.055	O=C(O)[C@@H](CS)NCCc1ccccc1
2.1	O=C(O)C(CS)CCc1ccccc1 (stereo not given)
0.61	O=C(O)[C@H](CS)NCCc1ccccc1
0.81	O=C(O)C(CS)NCc1cccc2ccccc12 (stereo not given)
1.3	O=C(O)C(CS)NCCCc1ccccc1 (stereo not given)
0.19	O=C(O)[C@@H](CS)NCc1ccccc1
> 500	O=C(O)C(CS)NCc1ccc2ccccc2c1 (stereo not given)
0.065	O=C(O)C(CS)NCCc1ccccc1 (stereo not given)
5.5	O=C(O)C(CS)Nc1ccccc1 (stereo not given)
0.01	O=C(O)C(CS)Cc1ccccc1 (stereo not given)

Continued, compound first:

SMILES	Ki [µM]
CCNC(CS)C(=O)O (stereo not given)	1.4
CCCNC(CS)C(=O)O (stereo not given)	5.6
O=C(O)C(CS)NCC1CCCCC1 (stereo not given)	9.4
N[C@H](CS)C(=O)O	2.3
O=C(O)C(CS)CCCc1ccccc1 (stereo not given)	1.35
CC(C)CNC(CS)C(=O)O (stereo not given)	7.5
O=C(O)[C@@H](CS)NC1CCCCC1	2.9
O=C(O)C(CS)NC1CCCCC1 (stereo not given)	9.6
O=C(O)[C@H](CS)NC1CCCCC1	7.9
COc1ccc(CNC(CS)C(=O)O)cc1 (stereo not given)	0.85
O=C(O)C(CS)CCCCc1ccccc1 (stereo not given)	1.3
CC(C)N[C@H](CS)C(=O)O	0.56
CC(C)CC(CS)C(=O)O (stereo not given)	0.16
CNC(CS)C(=O)O (stereo not given)	2.4
CC(C)NC(CS)C(=O)O (stereo not given)	1.1
CC(C)N[C@@H](CS)C(=O)O	2.9
CN(Cc1ccccc1)C(CS)C(=O)O (stereo not given)	12
N[C@@H](CS)C(=O)O [CYSTEINE]	350
